What was measured:
various pathogens = experiment: organism not typed; type: cell-based
Method: The MICs of the individual drugs and LC compound in combinations were determined using the broth microdilution technique as recommended by the CLSI whereby the two anti-microbial agents were added in an equal amount. (e.g.: 50 μL of Colistin: 50 μL of LC compounds). Diluted media containing compounds and antibiotics will be serially diluted 2-fold, and LC compounds and antibiotics alone or in combination will be assayed at fixed synergy concentration. In all cases, the lowest concentration at which no visible growth occurred was be recorded to be the MIC value of individual and combined antibacterial agents. The results were obtained after 24 hours of incubation.
Using the combination of LC100 and colistin, the activity of a broad range of strains was further tested (Table 7).

[1] = system: KLPN multi-drug resistant strains; experiment: MIC against multi-drug resistant strains (Table 5); type: cell-based, Klebsiella pneumonia; conditions: alone
Method: (§1) MIC experiments of the antimicrobial agents were determined by a modified broth microdilution method in accordance with the Clinical and Laboratory Standards Institute (CLSI) guidelines using 96 well culture plates. In brief, serial dilutions of all plates were prepared at different concentrations (μg). The inoculum suspension was prepared by adding isolated colonies from a 18-20 hours on TSA plate into phosphate buffer (0.31 mM, pH 7.2) or in water for injection (BBraun) and adjusting the suspension to a turbidity equivalent to 0.5 McFarland Standard. Each well contained a final bacterial concentration of approximately 5×10^5 colony forming units (CFU)/mL. The plate was covered and incubated at 35° C. for 24 hours. […] For the microdilution plates, turbidity in wells can be measured at OD600 using TECAN infinite M200Pro. MIC was determined as […] concentration that gives a 99 percent inhibition.

[2] = system: ENT CLOACAE multi-drug resistant strains; experiment: MIC against multi-drug resistant strains (Table 5); type: cell-based, E. cloacae; conditions: alone
Method: as §1

[3] = system: colistin resistant MCR (+) E. Coli strains; experiment: MIC, broth microdilution, compound alone; type: cell-based; conditions: for MIC: compound alone
How it was run: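 Modified CLSI broth microdilution; inoculum from 18–20 h TSA colonies adjusted to 0.5 McFarland, ~5×10^5 CFU/mL per well. Plates incubated 24 h at 35 °C; turbidity may be read at OD600. MIC defined as concentration giving 99% inhibition.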

[4] = 6093560257 [MCR 1+, E. Coli, NDM-1]
[5] = 7103531927 [MCR 1+, E. Coli, KPC+]
[6] = 7113636863 [MCR 1+, E. Coli, NDM-1]

CCN(CC)CCCCOc1ccc(/C=C/C(=O)c2ccc(OCCCCN(CC)CC)c(CC=C(C)C)c2O)cc1 [LC100]
✓: Pathogen sensitivity (✓/x), Colistin 0.5 μg+ LC100 1 μg (various pathogens; 6083655967 [MCR 1+, E. Coli]) | Pathogen sensitivity (✓/x), Colistin 0.5 μg+ LC100 2 μg (various pathogens; 6083655967 [MCR 1+, E. Coli]) | Pathogen sensitivity (✓/x), Colistin 1 μg+ LC100 1 μg (various pathogens; 6083655967 [MCR 1+, E. Coli]) | Pathogen sensitivity (✓/x), Colistin 1 μg+ LC100 2 μg (various pathogens; 6083655967 [MCR 1+, E. Coli]) | Pathogen sensitivity (✓/x), Colistin 0.5 μg+ LC100 1 μg (various pathogens; [4]) | Pathogen sensitivity (✓/x), Colistin 0.5 μg+ LC100 2 μg (various pathogens; [4]) | Pathogen sensitivity (✓/x), Colistin 1 μg+ LC100 1 μg (various pathogens; [4]) | Pathogen sensitivity (✓/x), Colistin 1 μg+ LC100 2 μg (various pathogens; [4]) | Pathogen sensitivity (✓/x), Colistin 0.5 μg+ LC100 1 μg (various pathogens; 6123520276 [MCR 1+, E. Coli]) | Pathogen sensitivity (✓/x), Colistin 0.5 μg+ LC100 2 μg (various pathogens; 6123520276 [MCR 1+, E. Coli]) | Pathogen sensitivity (✓/x), Colistin 1 μg+ LC100 1 μg (various pathogens; 6123520276 [MCR 1+, E. Coli]) | Pathogen sensitivity (✓/x), Colistin 1 μg+ LC100 2 μg (various pathogens; 6123520276 [MCR 1+, E. Coli]) | Pathogen sensitivity (✓/x), Colistin 0.5 μg+ LC100 1 μg (various pathogens; 7023436560 [MCR 1+, E. Coli]) | Pathogen sensitivity (✓/x), Colistin 0.5 μg+ LC100 2 μg (various pathogens; 7023436560 [MCR 1+, E. Coli]) | Pathogen sensitivity (✓/x), Colistin 1 μg+ LC100 1 μg (various pathogens; 7023436560 [MCR 1+, E. Coli]) | Pathogen sensitivity (✓/x), Colistin 1 μg+ LC100 2 μg (various pathogens; 7023436560 [MCR 1+, E. Coli]) | Pathogen sensitivity (✓/x), Colistin 0.5 μg+ LC100 1 μg (various pathogens; 7023444207 [MCR 1+, E. Coli]) | Pathogen sensitivity (✓/x), Colistin 0.5 μg+ LC100 2 μg (various pathogens; 7023444207 [MCR 1+, E. Coli]) | Pathogen sensitivity (✓/x), Colistin 1 μg+ LC100 1 μg (various pathogens; 7023444207 [MCR 1+, E. Coli]) | Pathogen sensitivity (✓/x), Colistin 1 μg+ LC100 2 μg (various pathogens; 7023444207 [MCR 1+, E. Coli]) | Pathogen sensitivity (✓/x), Colistin 0.5 μg+ LC100 1 μg (various pathogens; 7023446108 [MCR 1−, E. Coli]) | Pathogen sensitivity (✓/x), Colistin 0.5 μg+ LC100 2 μg (various pathogens; 7023446108 [MCR 1−, E. Coli]) | Pathogen sensitivity (✓/x), Colistin 1 μg+ LC100 1 μg (various pathogens; 7023446108 [MCR 1−, E. Coli]) | Pathogen sensitivity (✓/x), Colistin 1 μg+ LC100 2 μg (various pathogens; 7023446108 [MCR 1−, E. Coli]) | Pathogen sensitivity (✓/x), Colistin 0.5 μg+ LC100 1 μg (various pathogens; 7033607097 [MCR 1−, E. Coli]) | Pathogen sensitivity (✓/x), Colistin 0.5 μg+ LC100 2 μg (various pathogens; 7033607097 [MCR 1−, E. Coli]) | Pathogen sensitivity (✓/x), Colistin 1 μg+ LC100 1 μg (various pathogens; 7033607097 [MCR 1−, E. Coli]) | Pathogen sensitivity (✓/x), Colistin 1 μg+ LC100 2 μg (various pathogens; 7033607097 [MCR 1−, E. Coli]) | Pathogen sensitivity (✓/x), Colistin 0.5 μg+ LC100 1 μg (various pathogens; [5]) | Pathogen sensitivity (✓/x), Colistin 0.5 μg+ LC100 2 μg (various pathogens; [5]) | Pathogen sensitivity (✓/x), Colistin 1 μg+ LC100 1 μg (various pathogens; [5]) | Pathogen sensitivity (✓/x), Colistin 1 μg+ LC100 2 μg (various pathogens; [5]) | Pathogen sensitivity (✓/x), Colistin 0.5 μg+ LC100 1 μg (various pathogens; [6]) | Pathogen sensitivity (✓/x), Colistin 0.5 μg+ LC100 2 μg (various pathogens; [6]) | Pathogen sensitivity (✓/x), Colistin 1 μg+ LC100 1 μg (various pathogens; [6]) | Pathogen sensitivity (✓/x), Colistin 1 μg+ LC100 2 μg (various pathogens; [6]) | Pathogen sensitivity (✓/x), Colistin 0.5 μg+ LC100 1 μg (various pathogens; KLPN ATCC 10031) | Pathogen sensitivity (✓/x), Colistin 0.5 μg+ LC100 1 μg (various pathogens; KLPN CRE 15588) | Pathogen sensitivity (✓/x), Colistin 1 μg+ LC100 1 μg (various pathogens; KLPN CRE 15588) | Pathogen sensitivity (✓/x), Colistin 0.5 μg+ LC100 1 μg (various pathogens; KLPN CRE 16260) | Pathogen sensitivity (✓/x), Colistin 0.5 μg+ LC100 2 μg (various pathogens; KLPN CRE 16260) | Pathogen sensitivity (✓/x), Colistin 0.5 μg+ LC100 5 μg (various pathogens; KLPN CRE 16260) | Pathogen sensitivity (✓/x), Colistin 1 μg+ LC100 1 μg (various pathogens; KLPN CRE 16260) | Pathogen sensitivity (✓/x), Colistin 1 μg+ LC100 2 μg (various pathogens; KLPN CRE 16260) | Pathogen sensitivity (✓/x), Colistin 1 μg+ LC100 5 μg (various pathogens; KLPN CRE 16260) | Pathogen sensitivity (✓/x), Colistin 0.5 μg+ LC100 1 μg (various pathogens; PAE ATCC 15442) | Pathogen sensitivity (✓/x), Colistin 0.5 μg+ LC100 2 μg (various pathogens; PAE ATCC 15442) | Pathogen sensitivity (✓/x), Colistin 1 μg+ LC100 1 μg (various pathogens; PAE ATCC 15442) | Pathogen sensitivity (✓/x), Colistin 0.5 μg+ LC100 1 μg (various pathogens; PAE ATCC BAA-1744) | Pathogen sensitivity (✓/x), Colistin 0.5 μg+ LC100 2 μg (various pathogens; PAE ATCC BAA-1744) | Pathogen sensitivity (✓/x), Colistin 0.5 μg+ LC100 1 μg (various pathogens; PAE DM 4150) | Pathogen sensitivity (✓/x), Colistin 0.5 μg+ LC100 2 μg (various pathogens; PAE DM 4150) | Pathogen sensitivity (✓/x), Colistin 0.5 μg+ LC100 5 μg (various pathogens; PAE DM 4150) | Pathogen sensitivity (✓/x), Colistin 0.5 μg+ LC100 1 μg (various pathogens; PAE DM 23155) | Pathogen sensitivity (✓/x), Colistin 0.5 μg+ LC100 2 μg (various pathogens; PAE DM 23155) | Pathogen sensitivity (✓/x), Colistin 1 μg+ LC100 1 μg (various pathogens; PAE DM 23155) | Pathogen sensitivity (✓/x), Colistin 1 μg+ LC100 2 μg (various pathogens; PAE DM 23155) | Pathogen sensitivity (✓/x), Colistin 0.5 μg+ LC100 1 μg (various pathogens; PAE DM 23257) | Pathogen sensitivity (✓/x), Colistin 0.5 μg+ LC100 2 μg (various pathogens; PAE DM 23257) | Pathogen sensitivity (✓/x), Colistin 0.5 μg+ LC100 5 μg (various pathogens; PAE DM 23257) | Pathogen sensitivity (✓/x), Colistin 1 μg+ LC100 1 μg (various pathogens; PAE DM 23257) | Pathogen sensitivity (✓/x), Colistin 0.5 μg+ LC100 1 μg (various pathogens; PAE DM 23376) | Pathogen sensitivity (✓/x), Colistin 0.5 μg+ LC100 2 μg (various pathogens; PAE DM 23376) | Pathogen sensitivity (✓/x), Colistin 0.5 μg+ LC100 1 μg (various pathogens; PAE DR 5790) | Pathogen sensitivity (✓/x), Colistin 0.5 μg+ LC100 1 μg (various pathogens; PAE DU 14476) | Pathogen sensitivity (✓/x), Colistin 0.5 μg+ LC100 2 μg (various pathogens; PAE DU 14476) | Pathogen sensitivity (✓/x), Colistin 0.5 μg+ LC100 5 μg (various pathogens; PAE DU 14476) | Pathogen sensitivity (✓/x), Colistin 1 μg+ LC100 1 μg (various pathogens; PAE DU 14476)
no activity: antimicrobial activity when used alone ([3]; colistin resistant bacteria, in words)
100 µg/mL: MIC ([3]; strain 6075066346, MCR (+)) | MIC ([3]; strain 6083655967, MCR (+)) | MIC ([3]; strain 6103645107, MCR (+)) | MIC ([3]; strain 6123520276, MCR (+)) | MIC ([3]; strain 7013177695, MCR (+)) | MIC ([3]; strain 7023436560, MCR (+)) | MIC ([3]; strain 7028444207 (Table 1b), MCR (+))
>50 µg/mL: MIC ([1]; strain KLPN 8852) | MIC ([1]; strain KLPN 15588) | MIC ([1]; strain KLPN 24076) | MIC ([1]; strain KLPN 27025) | MIC ([2]; strain ENT CLOACAE 6780) | MIC ([2]; strain ENT CLOACAE 21489) | MIC ([2]; strain ENT CLOACAE 30063) | MIC ([2]; strain ENT CLOACAE 44095)
